Data reported in patent publication US11247976B2, “Synthetic ligands that modulate the activity of the RhlR quorum sensing receptor” (Wisconsin Alumni Research Foundation, priority 2016, dated 2022).
“Also recorded” adds a separate entry of the source.

Columns and labels:
RhlR [1] = molecular target: T1, RhlR (Pseudomonas aeruginosa, UniProt P54292); assay: P. aeruginosa RhlR reporter agonism assay (PAO-JP2/prhlI-LVAgfp); format: cell-based; settings: P. aeruginosa reporter compared with E. coli reporter
T1 construct: expressed in transfected cells; host or cells: E. coli JLD271 (ΔsdiA) with pJN105R2 (arabinose-induced) and pSC11-rhlI*
Procedure: All media and reagents for bacterial culture were purchased from commercial sources. Bacteria were cultured in Luria-Bertani broth (LB) at 37° C. with shaking at 200 rpm unless otherwise noted. The bacterial reporter strains used for this study were (i) the heterologous E. coli strain JLD271 (ΔsdiA) harboring the RhlR expression plasmid pJN105R2 and the rhlI-lacZ transcriptional fusion reporter pSC11-rhlI*, (ii) the heterologous E. coli strain JLD271 (ΔsdiA) harboring the LasR expression plasmid pJN105L and the […] transcriptional fusion reporter pSC11, and (iii) the P. aeruginosa strain PAO-JP2 (ΔlasrhlI) harboring the rhlI-gfp transcriptional fusion reporter prhlI-LVAgfp. Reporter strains JLD271/pJN105R2/pSC11-rhlI* and JLD271/pJN105L/pSC11 were grown in LB containing 100 μg/mL ampicillin and 10 μg/mL gentamicin. Freezer stocks of bacterial strains were maintained at −80° C. in 1:1 LB:50% glycerol.
To evaluate the RhlR-modulatory activities of selected compounds in P. aeruginosa, the ΔlasIrhlI strain PAO-JP2 harboring plasmid prhlI-LVAgfp was used as previously reported.^38 Briefly, a subculture was prepared by diluting an overnight culture 1:100 in fresh LB and was grown to OD600=0.3. […] Subculture was treated with 100 nM OdDHL (to induce native expression of RhlR) by adding the appropriate amount of OdDHL stock solution in DMSO. The subculture was then dispensed ([…] aliquots) into each synthetic compound-containing well of the microtiter plate.
Plates were incubated at 37° C. for 6 h, and GFP production was monitored by using a Synergy 2 plate reader (λex=500 nm, λem=540 nm; BioTek, Winooski, Vt.) and quantified with Gen5 1.05 software (BioTek). The final OD600 for each well was measured to normalize GFP production to cell density. All synthetic compounds were tested in triplicate, and three separate trials were performed with unique cultures. Agonism dose-response analyses were performed by testing compounds over a range of concentrations with the RhlR reporter.
Library compounds J18 and J24, as well as controls BHL and S4, were evaluated for potency in the native genetic background of RhlR by using the P. aeruginosa strain PAO-JP2 (ΔlasIrhlI) harboring the RhlR reporter plasmid prhlI-LVAgfp (Table 3). Because the production of RhlR is dependent on LasR (in LB medium), all assays were performed in the presence of 100 nM OdDHL, enabling immediate transcription of RhlR via LasR activation. […] All compounds also retained similar potencies when screened in the P. aeruginosa background.

RhlR [2] = molecular target: T1, RhlR; assay: E. coli RhlR reporter agonism assay (JLD271/pJN105R2/pSC11-rhlI*); format: cell-based, P. aeruginosa; settings: for Emax: read-out: Maximum Activation (%); for activation at 10 µM: compound at 10 μM, RhlR activity relative to 1 mM BHL
RhlR [3] = molecular target: T1, RhlR; assay: P. aeruginosa RhlR reporter agonism assay (PAO-JP2/prhlI-LVAgfp); format: cell-based; settings: for Emax: read-out: Maximum Activation (%)

T1 sequence (P54292 whole entry): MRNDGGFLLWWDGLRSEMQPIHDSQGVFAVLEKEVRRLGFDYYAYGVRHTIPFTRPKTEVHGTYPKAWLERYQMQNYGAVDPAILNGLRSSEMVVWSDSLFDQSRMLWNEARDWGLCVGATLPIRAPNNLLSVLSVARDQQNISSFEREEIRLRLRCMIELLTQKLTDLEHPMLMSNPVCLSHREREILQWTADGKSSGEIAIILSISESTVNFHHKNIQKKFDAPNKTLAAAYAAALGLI

SMILES | RhlR agonist potency in words (RhlR [1]) | EC50 (RhlR [2]) [µM] | RhlR agonist potency in words (RhlR [2]; dose-response, E. coli reporter) | Emax (RhlR [2]) [%] | EC50 (RhlR [3]) [µM] | Emax (RhlR [3]) [%] | activation at 10 µM (RhlR [2]; E. coli reporter) [%]
CC(C)CC(=O)N[C@H]1CCSC1=O [RN37] | not able to retain potency | 0.463 | improves potency two-fold over the homoserine lactone variant; also recorded: most potent RhlR agonist found in the E. coli reporter | 93 | 2.58 | 91 | –
CC(C)CC(=O)N[C@H]1CCCC1=O [RN36] | not able to retain potency | 7.58 | – | 101 | 11.2 | 96 | > 50
O=C(N[C@H]1CCCC1=O)C1CCC1 [RN12] | maintained activity between the two different reporters | 5.94 | – | 93 | 7.35 | 96 | > 50
O=C(COc1ccc(I)cc1)N[C@H]1CCSC1=O [RN22] | – | – | – | – | – | – | 1
